Measured values from ChEMBL document CHEMBL2380302, “Synthesis of 3-O-propargylated betulinic acid and its 1,2,3-triazoles as potential apoptotic agents” (Eur J Med Chem, 2013).

Columns and labels:
HCT-15 [1] = assay: Cytotoxicity against human HCT15 cells at 10 uM after 48 hrs by SRB assay; format: functional; conditions: HCT-15, 48 h, read-out: GI
SF-295 [2] = assay: Cytotoxicity against human SF295 cells at 10 uM after 48 hrs by SRB assay; format: functional; conditions: SF-295, 48 h, read-out: GI
A549 [3] = assay: Cytotoxicity against human A549 cells at 10 uM after 48 hrs by SRB assay; format: functional; conditions: A549, 48 h, read-out: GI
MCF7 [4] = assay: Cytotoxicity against human MCF7 cells at 10 uM after 48 hrs by SRB assay; format: functional; conditions: MCF7, 48 h, read-out: GI
HEp-2 [5] = assay: Cytotoxicity against human Hep2 cells at 10 uM after 48 hrs by SRB assay; format: functional; conditions: HEp-2, 48 h, read-out: GI
PC-3 [6] = assay: Cytotoxicity against human PC3 cells at 10 uM after 48 hrs by SRB assay; format: functional; conditions: PC-3, 48 h, read-out: GI
DU-145 [7] = assay: Cytotoxicity against human DU145 cells at 10 uM after 48 hrs by SRB assay; format: functional; conditions: DU-145, 48 h, read-out: GI
HL-60 [8] = assay: Cytotoxicity against human HL60 cells at 10 uM after 48 hrs by SRB assay; format: functional; conditions: HL-60, 48 h, read-out: GI
THP-1 [9] = assay: Cytotoxicity against human THP1 cells at 10 uM after 48 hrs by SRB assay; format: functional; conditions: THP-1, 48 h, read-out: GI
HCT-15 [10] = assay: Cytotoxicity against human HCT15 cells at 30 uM after 48 hrs by SRB assay; format: functional; conditions: HCT-15, 48 h, read-out: GI
SF-295 [11] = assay: Cytotoxicity against human SF295 cells at 30 uM after 48 hrs by SRB assay; format: functional; conditions: SF-295, 48 h, read-out: GI
A549 [12] = assay: Cytotoxicity against human A549 cells at 30 uM after 48 hrs by SRB assay; format: functional; conditions: A549, 48 h, read-out: GI
MCF7 [13] = assay: Cytotoxicity against human MCF7 cells at 30 uM after 48 hrs by SRB assay; format: functional; conditions: MCF7, 48 h, read-out: GI
HEp-2 [14] = assay: Cytotoxicity against human Hep2 cells at 30 uM after 48 hrs by SRB assay; format: functional; conditions: HEp-2, 48 h, read-out: GI
PC-3 [15] = assay: Cytotoxicity against human PC3 cells at 30 uM after 48 hrs by SRB assay; format: functional; conditions: PC-3, 48 h, read-out: GI
DU-145 [16] = assay: Cytotoxicity against human DU145 cells at 30 uM after 48 hrs by SRB assay; format: functional; conditions: DU-145, 48 h, read-out: GI
HL-60 [17] = assay: Cytotoxicity against human HL60 cells at 30 uM after 48 hrs by SRB assay; format: functional; conditions: HL-60, 48 h, read-out: GI
THP-1 [18] = assay: Cytotoxicity against human THP1 cells at 30 uM after 48 hrs by SRB assay; format: functional; conditions: THP-1, 48 h, read-out: GI
HCT-15 [19] = assay: Cytotoxicity against human HCT15 cells at 50 uM after 48 hrs by SRB assay; format: functional; conditions: HCT-15, 48 h, read-out: GI
SF-295 [20] = assay: Cytotoxicity against human SF295 cells at 50 uM after 48 hrs by SRB assay; format: functional; conditions: SF-295, 48 h, read-out: GI
A549 [21] = assay: Cytotoxicity against human A549 cells at 50 uM after 48 hrs by SRB assay; format: functional; conditions: A549, 48 h, read-out: GI
MCF7 [22] = assay: Cytotoxicity against human MCF7 cells at 50 uM after 48 hrs by SRB assay; format: functional; conditions: MCF7, 48 h, read-out: GI
HEp-2 [23] = assay: Cytotoxicity against human Hep2 cells at 50 uM after 48 hrs by SRB assay; format: functional; conditions: HEp-2, 48 h, read-out: GI
PC-3 [24] = assay: Cytotoxicity against human PC3 cells at 50 uM after 48 hrs by SRB assay; format: functional; conditions: PC-3, 48 h, read-out: GI
HL-60 [25] = assay: Cytotoxicity against human HL60 cells at 50 uM after 48 hrs by SRB assay; format: functional; conditions: HL-60, 48 h, read-out: GI
DU-145 [26] = assay: Cytotoxicity against human DU145 cells at 50 uM after 48 hrs by SRB assay; format: functional; conditions: DU-145, 48 h, read-out: GI
THP-1 [27] = assay: Cytotoxicity against human THP1 cells at 50 uM after 48 hrs by SRB assay; format: functional; conditions: THP-1, 48 h, read-out: GI
HCT-15 [28] = assay: Cytotoxicity against human HCT15 cells after 48 hrs by SRB assay; format: functional, cell-based; conditions: HCT-15, 48 h
A549 [29] = assay: Cytotoxicity against human A549 cells after 48 hrs by SRB assay; format: functional, cell-based; conditions: A549, 48 h
SF-295 [30] = assay: Cytotoxicity against human SF295 cells after 48 hrs by SRB assay; format: functional, cell-based; conditions: SF-295, 48 h
MCF7 [31] = assay: Cytotoxicity against human MCF7 cells after 48 hrs by SRB assay; format: functional, cell-based; conditions: MCF7, 48 h
HEp-2 [32] = assay: Cytotoxicity against human Hep2 cells after 48 hrs by SRB assay; format: functional, cell-based; conditions: HEp-2, 48 h
PC-3 [33] = assay: Cytotoxicity against human PC3 cells after 48 hrs by SRB assay; format: functional, cell-based; conditions: PC-3, 48 h
DU-145 [34] = assay: Cytotoxicity against human DU145 cells after 48 hrs by SRB assay; format: functional, cell-based; conditions: DU-145, 48 h
HL-60 [35] = assay: Cytotoxicity against human HL60 cells after 48 hrs by SRB assay; format: functional, cell-based; conditions: HL-60, 48 h
THP-1 [36] = assay: Cytotoxicity against human THP1 cells after 48 hrs by SRB assay; format: functional, cell-based; conditions: THP-1, 48 h

Row | SMILES | inhibition of growth at 10 µM (HCT-15 [1]) [%] | inhibition of growth at 10 µM (SF-295 [2]) [%] | inhibition of growth at 10 µM (A549 [3]) [%] | inhibition of growth at 10 µM (MCF7 [4]) [%] | inhibition of growth at 10 µM (HEp-2 [5]) [%] | inhibition of growth at 10 µM (PC-3 [6]) [%] | inhibition of growth at 10 µM (DU-145 [7]) [%] | inhibition of growth at 10 µM (HL-60 [8]) [%] | inhibition of growth at 10 µM (THP-1 [9]) [%] | inhibition of growth at 30 µM (HCT-15 [10]) [%] | inhibition of growth at 30 µM (SF-295 [11]) [%] | inhibition of growth at 30 µM (A549 [12]) [%] | inhibition of growth at 30 µM (MCF7 [13]) [%] | inhibition of growth at 30 µM (HEp-2 [14]) [%] | inhibition of growth at 30 µM (PC-3 [15]) [%] | inhibition of growth at 30 µM (DU-145 [16]) [%] | inhibition of growth at 30 µM (HL-60 [17]) [%] | inhibition of growth at 30 µM (THP-1 [18]) [%] | inhibition of growth at 50 µM (HCT-15 [19]) [%] | inhibition of growth at 50 µM (SF-295 [20]) [%] | other results
1 | C=C(C)[C@@H]1CC[C@]2(C(=O)O)CC[C@]3(C)[C@H](CC[C@@H]4[C@@]5(C)CC[C@H](OCc6cn(-c7cccc(CO)c7)nn6)C(C)(C)[C@@H]5CC[C@]43C)[C@@H]12 | 11 | 27 | 43 | 36 | 51 | 4 | 43 | 53 | 50 | 70 | 37 | 45 | 71 | 74 | 29 | 52 | 93 | 91 | 71 | 47 | inhibition of growth at 50 µM (A549 [21]): 67%; inhibition of growth at 50 µM (MCF7 [22]): 75%; inhibition of growth at 50 µM (HEp-2 [23]): 78%; inhibition of growth at 50 µM (PC-3 [24]): 49%; inhibition of growth at 50 µM (HL-60 [25]): 95%; inhibition of growth at 50 µM (DU-145 [26]): 65%; inhibition of growth at 50 µM (THP-1 [27]): 93%; IC50 (HCT-15 [28]): 25 µM; IC50 (A549 [29]): 32 µM; IC50 (SF-295 [30]): 53 µM; IC50 (MCF7 [31]): 17 µM; IC50 (HEp-2 [32]): 8 µM; IC50 (PC-3 [33]): 50 µM; IC50 (DU-145 [34]): 23 µM; IC50 (HL-60 [35]): 7 µM; IC50 (THP-1 [36]): 10 µM
2 | C=C(C)[C@@H]1CC[C@]2(C(=O)O)CC[C@]3(C)[C@H](CC[C@@H]4[C@@]5(C)CC[C@H](OCc6cn(-c7ccc(C#N)cc7)nn6)C(C)(C)[C@@H]5CC[C@]43C)[C@@H]12 | 14 | 5 | 22 | 5 | 1 | 3 | 1 | 15 | 21 | 80 | 18 | 28 | 32 | 49 | 5 | 15 | 40 | 44 | 39 | 54 | inhibition of growth at 50 µM (A549 [21]): 36%; inhibition of growth at 50 µM (MCF7 [22]): 51%; inhibition of growth at 50 µM (HEp-2 [23]): 60%; inhibition of growth at 50 µM (PC-3 [24]): 42%; inhibition of growth at 50 µM (HL-60 [25]): 48%; inhibition of growth at 50 µM (DU-145 [26]): 20%; inhibition of growth at 50 µM (THP-1 [27]): 47%; IC50 (HCT-15 [28]): > 50 µM; IC50 (A549 [29]): > 50 µM; IC50 (SF-295 [30]): 48 µM; IC50 (MCF7 [31]): 49 µM; IC50 (HEp-2 [32]): 32 µM; IC50 (PC-3 [33]): > 50 µM; IC50 (DU-145 [34]): > 50 µM; IC50 (HL-60 [35]): 32 µM; IC50 (THP-1 [36]): > 50 µM
3 | C=C(C)[C@@H]1CC[C@]2(C(=O)O)CC[C@]3(C)[C@H](CC[C@@H]4[C@@]5(C)CC[C@H](OCc6cn(-c7cc(C)cc(O)c7)nn6)C(C)(C)[C@@H]5CC[C@]43C)[C@@H]12 | 28 | 23 | 23 | 70 | 9 | 47 | 10 | 24 | 15 | 56 | 75 | 59 | 96 | 25 | 74 | 51 | 90 | 85 | 66 | 90 | inhibition of growth at 50 µM (A549 [21]): 71%; inhibition of growth at 50 µM (MCF7 [22]): 96%; inhibition of growth at 50 µM (HEp-2 [23]): 42%; inhibition of growth at 50 µM (PC-3 [24]): 91%; inhibition of growth at 50 µM (HL-60 [25]): 98%; inhibition of growth at 50 µM (DU-145 [26]): 97%; inhibition of growth at 50 µM (THP-1 [27]): 99%; IC50 (HCT-15 [28]): 26 µM; IC50 (A549 [29]): 26 µM; IC50 (SF-295 [30]): 19 µM; IC50 (MCF7 [31]): 3.8 µM; IC50 (HEp-2 [32]): > 50 µM; IC50 (PC-3 [33]): 13 µM; IC50 (DU-145 [34]): 28 µM; IC50 (HL-60 [35]): 14 µM; IC50 (THP-1 [36]): 18 µM
4 | C=C(C)[C@@H]1CC[C@]2(C(=O)O)CC[C@]3(C)[C@H](CC[C@@H]4[C@@]5(C)CC[C@H](OCc6cn(-c7ccc(C(=O)c8ccccc8)cc7)nn6)C(C)(C)[C@@H]5CC[C@]43C)[C@@H]12 | 43 | 8 | 32 | 29 | 25 | 6 | 6 | 6 | 3 | 41 | 19 | 37 | 25 | 26 | 4 | 9 | 30 | 24 | 46 | 12 | inhibition of growth at 50 µM (A549 [21]): 58%; inhibition of growth at 50 µM (MCF7 [22]): 44%; inhibition of growth at 50 µM (HEp-2 [23]): 25%; inhibition of growth at 50 µM (PC-3 [24]): 3%; inhibition of growth at 50 µM (HL-60 [25]): 94%; inhibition of growth at 50 µM (DU-145 [26]): 50%; inhibition of growth at 50 µM (THP-1 [27]): 91%; IC50 (HCT-15 [28]): > 50 µM; IC50 (A549 [29]): 36 µM; IC50 (SF-295 [30]): > 50 µM; IC50 (MCF7 [31]): > 50 µM; IC50 (HEp-2 [32]): > 50 µM; IC50 (PC-3 [33]): > 50 µM; IC50 (DU-145 [34]): 50 µM; IC50 (HL-60 [35]): 40 µM; IC50 (THP-1 [36]): 44 µM
